Series [1] concerns the target T1, YTHDF1 YTH domain (Homo sapiens, UniProt Q9BYJ9).
T1 construct: The human YTHDF1 YTH domain (amino acids 365–554, PDB: 4RCJ); host or cells: E. coli BL21(DE3)
T1 sequence (Q9BYJ9 365-554): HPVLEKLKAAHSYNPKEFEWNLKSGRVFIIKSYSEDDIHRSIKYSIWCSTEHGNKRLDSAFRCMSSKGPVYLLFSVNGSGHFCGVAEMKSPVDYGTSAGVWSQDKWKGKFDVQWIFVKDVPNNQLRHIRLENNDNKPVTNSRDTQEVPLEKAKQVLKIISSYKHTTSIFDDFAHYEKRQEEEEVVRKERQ
Put plainly: Tryptophan fluorescence quenching assay. The series is classed as binding. As for the experimental part: Fluorescence was measured using a Tecan Infinite 200 Microplate reader (Tecan Group Ltd.), setting the […] wavelength at 288 nm and collecting the emission data at 330 nm.

A further series has as its target T2, YTHDF1 domain (Homo sapiens, UniProt Q9BYJ9).
T2 construct: The human YTHDF1 YTH domain (amino acids 365–554, PDB: 4RCJ); host or cells: E. coli BL21(DE3)
T2 sequence (Q9BYJ9 365-554): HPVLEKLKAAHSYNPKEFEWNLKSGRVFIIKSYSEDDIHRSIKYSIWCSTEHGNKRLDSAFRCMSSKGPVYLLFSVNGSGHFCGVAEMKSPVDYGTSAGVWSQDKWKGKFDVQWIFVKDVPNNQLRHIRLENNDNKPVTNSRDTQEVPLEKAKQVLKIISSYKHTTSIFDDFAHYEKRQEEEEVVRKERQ
Briefly: High-throughput screen, tryptophan quenching, Z-score. The series is classed as binding. Particulars: 5 μM protein, compounds at 10 μM. As for the experimental part: A Z factor of 0.53 was obtained. The high-throughput screen was performed by using an automatic liquid handling (Freedom EVO, Tecan), filling black 384-well plates with 15 μL of 5 μM protein in 20 mM Tris (pH 7.5), 150 mM NaCl, and 10% glycerol, and then by adding the library of compounds at a final concentration of 10 μM. Fluorescence was measured immediately after compound addition. The library used was the Spectrum Collection (Microsource Discovery System, Inc.), composed of 2560 compounds, of whom 60% are clinically used drugs, 25% natural products, and 15% other bioactive molecules. The Z-score was calculated as (X – μp)/σp, where X is the fluorescence intensity of the protein. Candidate molecules were considered all of the ones that were under the threshold of Z = −3, while all of the ones over that value were discarded.

Series [2] deals with T3, YTH domain of YTHDF1 / biotinylated RNA probe 5′-Bi-CCGAm6ACUGUC-3′ (Homo sapiens, UniProt Q9BYJ9).
T3 construct: The human YTHDF1 YTH domain (amino acids 365–554, PDB: 4RCJ); host or cells: E. coli BL21(DE3)
T3 sequence (Q9BYJ9 365-554): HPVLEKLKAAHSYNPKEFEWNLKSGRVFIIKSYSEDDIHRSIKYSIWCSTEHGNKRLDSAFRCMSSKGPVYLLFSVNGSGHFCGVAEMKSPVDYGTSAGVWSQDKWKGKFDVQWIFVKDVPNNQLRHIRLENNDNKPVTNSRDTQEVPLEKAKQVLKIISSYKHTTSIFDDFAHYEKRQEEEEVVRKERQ
Put plainly: AlphaScreen competitive assay, saturation binding. Conditions: for Disruption of the YTH/RNA interaction (AlphaScreen, in words): YTHDF1 YTH domain. As for the experimental part: The Amplified Luminescent Proximity Homogeneous Assay (ALPHA Assay) was performed in white 384-well Optiplates (PerkinElmer) in a final volume of 20 μL, and it was first optimized by titrating both the protein and the biotinylated RNA probe (5′-Bi-CCGAm6ACUGUC-3′, Dharmacon) to find the appropriate right protein/RNA ratio before the saturation of the detection signal. […] Anti-His acceptor beads (PerkinElmer) (20 μg/mL final concentration) and streptavidin donor beads (20 μg/mL final concentration) were added and the reaction was incubated in the dark at room temperature for 1 h to reach equilibrium. Light signals were detected with an Enspire Multimode Plate reader (PerkinElmer). […] The IC50 of ebselen was determined from the nonlinear regression fits of the data.
A general note: In Alpha technology, singlet oxygen from a donor bead excites a nearby acceptor bead.

The target in series [3] is T4, YTHDF1 YTH domain (human, UniProt Q9BYJ9 365-554).
T4 sequence: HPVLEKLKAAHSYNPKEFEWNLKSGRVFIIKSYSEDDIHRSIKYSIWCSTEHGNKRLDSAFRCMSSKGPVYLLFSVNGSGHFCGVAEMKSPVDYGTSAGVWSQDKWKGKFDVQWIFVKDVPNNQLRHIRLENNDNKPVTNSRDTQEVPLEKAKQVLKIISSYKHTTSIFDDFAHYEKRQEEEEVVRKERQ
Put plainly: dynamic mass redistribution. Particulars: EC50; immobilized protein; m6A; Fluorescence: 20 mM Hepes pH 7.5, 150 mM NaCl, 10% glycerol; REMSA: 20 mM Hepes pH 7.5, 50 mM KCl, BSA, 0.25% glycerol, gel at 4 C; AlphaScreen: 25 mM Hepes pH ….

The target in series [4] is T4, YTHDF1 YTH domain. Put plainly: tryptophan fluorescence quenching; 5 uM protein; Fluorescence: 20 mM Hepes pH 7.5, 150 mM NaCl, 10% glycerol; REMSA: 20 mM Hepes pH 7.5, 50 mM KCl, BSA, 0.25% glycerol, gel at 4 C; AlphaScreen: 25 mM Hepes pH. Particulars: protein: recombinant; tags: 6xHis (C-terminal as stated); single strand.
In series [5] the target is T4, YTHDF1 YTH domain. Briefly: tryptophan fluorescence quenching; EC50; 5 uM protein; Fluorescence: 20 mM Hepes pH 7.5, 150 mM NaCl, 10% glycerol; REMSA: 20 mM Hepes pH 7.5, 50 mM KCl, BSA, 0.25% glycerol, gel at 4 C; AlphaScreen: 25 mM Hepes pH. Conditions: protein: recombinant; tags: 6xHis (C-terminal as stated); single strand.
Setting [6] is: 5 μM protein, read-out: EC50 (tryptophan quenching).
Setting [7] is: Table 1, read-out: EC50 (μM) (Tryptophan quenching).

We go through 19 molecules from publication PMC9578143, “Small-Molecule Ebselen Binds to YTHDF Proteins Interfering with the Recognition of N^6-Methyladenosine-Modified RNAs” (ACS Pharmacology & Translational Science, 2022).

“And” between values parts separate entries of the source, which are not always exact repeats. Equal entries are not always repeated. “Also recorded” adds a separate entry of the source. Where two headings read alike, the source gives them in different places.

Broadly, the EC50 is the concentration at which the effect is half-maximal. As to 5-′CCGAm6ACUGUC-3′, at YTHDF1 YTH domain [1] (setting [6]), the half-maximal effective concentration (EC50) is 0.14 µM and 0.139 µM. In the case of `O=C1C(Cl)=C(Cl)C(=O)c2c(O)ccc(O)c21` [2,3-DICHLORO-5,8-DIHYDROXYNAPTHOQUINONE], on YTHDF1 domain, the “Mean(FI.z-score)” value was -3.853. Same read-out and setting: the figure for `O=C1C(Cl)=C(Cl)C(=O)C(Cl)=C1Cl` [CHLORANIL] is -4.349. A word on the IC50: it is the concentration needed to halve the response being measured. A high value points to weaker potency. Regarding `O=c1c2ccccc2sn1-c1ccccc1` [Compound 2, 2-Phenylbenzo[d]isothiazol-3(2H)-one], on YTHDF1 YTH domain [1], the “Tryptophan fluorescence quenching / binding to the YTH domain (in words)” value is given as “maintained both capacities”. The EC50 at YTHDF1 YTH domain [1] (setting [7]) came out at 1.76 ± 0.02 µM. In series [2] (50 nM RNA, 50 nM protein, compound 0–100 μM), the IC50 was 23.14 ± 0.08 µM. Moreover, the “Disruption of the YTH/RNA interaction (AlphaScreen, in words)” value in series [2] is recorded as “maintained both capacities”.

Turning to `O=C1c2ccccc2CN1c1ccccc1` [Compound 3, 2-phenylisoindolin-1-one], on YTHDF1 YTH domain [1], the “Tryptophan fluorescence quenching / binding to the YTH domain (in words)” value is on record as “completely abolished; also recorded: failed to generate a dose–response curve”. Also, the EC50 on YTHDF1 YTH domain [1] (setting [7]) is above 100 µM. For the same molecule, the “Disruption of the YTH/RNA interaction (AlphaScreen, in words)” value in series [2] is on record as “completely abolished; also recorded: failed”.

Take `O=c1c2ccccc2[se]n1-c1ccc(F)cc1` [Compound 4, 2-(4-Fluorophenyl)benzo[d][1,2]selenazol-3(2H)-one]: the EC50 at YTHDF1 YTH domain [1] (setting [7]) was found to be 1.89 ± 0.33 µM. Regarding `O=c1c2ccccc2sn1-c1ccc(F)cc1` [Compound 5, 2-(4-Fluorophenyl)benzo[d]isothiazol-3(2H)-one], the concentration for a half-maximal effect (EC50) on YTHDF1 YTH domain [1] (setting [7]) turned out to be 1.63 ± 0.89 µM. Regarding `CCN(CC)CCn1[se]c2ccccc2c1=O` [Compound 6, 2-(2-(Diethylamino)ethyl)benzo[d][1,2]selenazol-3(2H)-one], the EC50 on YTHDF1 YTH domain [1] (setting [7]) was 1.48 ± 0.26 µM. For the molecule `CCN(CC)CCn1sc2ccccc2c1=O` [Compound 7, 2-(2-(Diethylamino)ethyl)benzo[d]isothiazol-3(2H)-one], the EC50 at YTHDF1 YTH domain [1] (setting [7]) is 1.69 ± 0.26 µM. Turning to `O=c1c2ccccc2[se]n1CCN1CCOCC1` [Compound 8, 2-(2-Morpholinoethyl)benzo[d][1,2]selenazol-3(2H)-one], on YTHDF1 YTH domain [1] (setting [7]), the EC50 is 3.35 ± 2.2 µM. Take `O=c1c2ccccc2sn1CCN1CCOCC1` [Compound 9, 2-(2-Morpholinoethyl)benzo[d]isothiazol-3(2H)-one]: on YTHDF1 YTH domain [1] (setting [7]), the EC50 turned out to be 2.83 ± 1.08 µM. Same read-out and setting: the figure for `O=C(NCCN1CCOCC1)c1ccccc1SSc1ccccc1C(=O)NCCN1CCOCC1` [Compound 10, 2,2′-Disulfanediylbis(N-(2-morpholinoethyl)benzamide)] is 2.9 ± 1.8 µM. For the molecule `Nc1ncnc2c1ncn2[C@@H]1O[C@H](CO)[C@@H](O)[C@H]1O` [adenosine], the “Tryptophan fluorescence quenching / binding to the YTH domain (in words)” value on YTHDF1 YTH domain [1] is reported as “not upon adenosine addition”. As to `CNc1ncnc2c1ncn2[C@@H]1O[C@H](CO)[C@@H](O)[C@H]1O` [m6A, N^6-methyladenosine], the EC50 at YTHDF1 YTH domain [1] (setting [6]) is 596 µM. In the series with YTHDF1 YTH domain [3], m6A RNA probe used in DMR yielded a K half of 63.8 nM. Consider CCGAACUGUC (ssRNA) [GAACU ssRNA unmethylated], for which the binding result with YTHDF1 YTH domain [4] is reported as “no binding”. As for CCGAACUGUC (ssRNA, m6A at position 5) [GAm6ACU ssRNA], the “apparent K (half saturation)” value with YTHDF1 YTH domain [5] was determined as 140 nM. Regarding CCGGACUGUC (ssRNA) [GGACU ssRNA unmethylated], in the series with YTHDF1 YTH domain [4], the binding result is on record as “no binding”.

For the molecule CCGGACUGUC (ssRNA, m6A at position 5) [GGm6ACU ssRNA (m6A-RNA)], the “apparent K (half saturation)” value with YTHDF1 YTH domain [5] worked out at 1050 nM.
